Laboratory results published in US9643957B2, “Heterocyclic compounds having cholesterol 24-hydroxylase activity” (TAKEDA PHARMACEUTICAL COMPANY LIMITED, priority 2012, dated 2017).

Biological target: T1, human CH24H (Homo sapiens, UniProt Q9Y6A2)
T1 construct: Using Full-Length Mammalian Gene Collection No. 4819975 (Invitrogen) as a template; made in house; host or cells: FreeStyle 293-F cells, transient transfection with pcDNA3.1(+)/hCH24H; lysate supernatant, not purified
Experiment: Measurement of CH24H inhibitory activity (24-HC produced from [14C] cholesterol by human CH24H lysate)
Type: biochemical
Conditions: 1 μM test compound, [14C] cholesterol 15 μM, 37° C. for 5 hr, read-out: Inhibitory Rate in 1 μM (%)
Experimental: The expression of human CH24H was performed using FreeStyle 293 Expression System (Invitrogen). […] After transfection, the cells were cultured at 37° C., 8% CO2 with shaking at 125 rpm for 2 days. The cells were collected by centrifugation, and suspended in a suspension buffer (100 mM potassium phosphate (pH 7.4), 0.1 mM EDTA, 1 mM DTT, 20% Glycerol). The suspended product was disrupted by a polytron homogenizer (manufactured by Kinematica), and centrifuged at 9000×g for 10 min, and the supernatant was collected. The collected supernatant was cryopreserved (−80° C.) as a human CH24H lysate standard product.
For the measurement of CH24H inhibitory activity, using the human CH24H lysate prepared in Experimental Example 2, the amount of 24-HC produced from cholesterol by catalytic activity of CH24H was measured in the presence of a test compound, and compared with that measured in the absence of the test compound. That is, a test compound solution at various concentrations was mixed with a reaction buffer (50 mM potassium phosphate containing 0.1% BSA and Complete, EDTA-free, pH 7.4) and human CH24H lysate. Then, [^14C] cholesterol (53 mCi/mmol specific activity, 15 μM) was added, and CH24H reaction was performed at 37° C. for 5 hr. After completion of the reaction, a quenching solution consisting of chloroform/methanol/distilled water (2:2:1 v/v) was added, and the resulting 24-HC was extracted by shaking. The extract was applied to silica gel thin layer chromatography (ethyl acetate:toluene=4:6), and the obtained ^14C-24HC fraction was measured with BAS2500 (Fujifilm Corporation).
The inhibitory rate (%) was calculated from the ratio of radioactivity in the presence of a test compound relative to the radioactivity in the absence of the test compound.

T1 sequence (Q9Y6A2 whole entry): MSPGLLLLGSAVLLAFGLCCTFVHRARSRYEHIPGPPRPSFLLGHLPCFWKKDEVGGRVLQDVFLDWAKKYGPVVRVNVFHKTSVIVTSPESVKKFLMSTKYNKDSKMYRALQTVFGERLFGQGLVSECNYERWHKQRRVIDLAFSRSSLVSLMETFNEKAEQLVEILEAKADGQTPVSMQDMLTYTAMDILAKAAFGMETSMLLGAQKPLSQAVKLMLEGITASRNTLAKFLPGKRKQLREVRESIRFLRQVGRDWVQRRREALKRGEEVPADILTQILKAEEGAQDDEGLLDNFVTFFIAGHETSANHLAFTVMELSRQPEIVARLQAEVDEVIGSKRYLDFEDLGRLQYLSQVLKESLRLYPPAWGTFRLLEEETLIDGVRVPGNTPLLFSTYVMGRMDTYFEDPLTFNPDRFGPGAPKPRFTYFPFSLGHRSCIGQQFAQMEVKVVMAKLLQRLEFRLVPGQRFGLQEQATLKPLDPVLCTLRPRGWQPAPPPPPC

inhibition at 1 µM [%] | Structure (SMILES)
86 | O=C(C1CC1)N1CCN(c2cncc(F)c2-c2ccccc2)CC1 [Example 165, cyclopropyl(4-(5-fluoro-4-phenylpyridin-3-yl)piperazin-1-yl)methanone]
90 | O=C(NC1CC1)C1CCN(c2cncnc2-c2ccc(F)cc2)CC1 [Example 193, N-cyclopropyl-1-(4-(4-fluorophenyl)pyrimidin-5-yl)piperidine-4-carboxamide]
88 | Cc1cn(-c2ccncc2N2CCC(C(=O)NC3CC3)CC2)nc1C [Example 200, N-cyclopropyl-1-(4-(3,4-dimethyl-1H-pyrazol-1-yl)pyridin-3-yl)piperidine-4-carboxamide]
93 | O=C(C1CCN(c2cnccc2-c2ccccn2)CC1)N1CC(F)(F)C1 [Example 213, (1-(2,4′-bipyridin-3′-yl)piperidin-4-yl) (3,3-difluoroazetidin-1-yl)methanone]
89 | O=C(C1CCN(c2cnccc2-c2ccccn2)CC1)N1CCC(F)(F)C1 [Example 214, (1-(2,4′-bipyridin-3′-yl)piperidin-4-yl) (3,3-difluoropyrrolidin-1-yl)methanone]
75 | O=C(C1CCN(c2cncnc2-c2ccc(F)cc2)CC1)N1CC(F)C1 [Example 278, (3-fluoroazetidin-1-yl)(1-(4-(4-fluorophenyl)pyrimidin-5-yl)piperidin-4-yl)methanone]
78 | Cc1cnn(-c2ccncc2N2CCC(C(=O)N3CC(F)C3)CC2)c1 [Example 280, (3-fluoroazetidin-1-yl)(1-(4-(4-methyl-1H-pyrazol-1-yl)pyridin-3-yl)piperidin-4-yl)methanone]
84 | O=C(C1CCN(c2cnccc2-n2cc(Cl)cn2)CC1)N1CC(F)C1 [Example 281, (1-(4-(4-chloro-1H-pyrazol-1-yl)pyridin-3-yl)piperidin-4-yl) (3-fluoroazetidin-1-yl)methanone]
83 | Cc1cnn(-c2ccncc2N2CCC(C(=O)N3CC[C@H](F)C3)CC2)c1 [Example 282, ((3S)-3-fluoropyrrolidin-1-yl)(1-(4-(4-methyl-1H-pyrazol-1-yl)pyridin-3-yl)piperidin-4-yl)methanone]
85 | Cc1cnn(-c2ccncc2N2CCC(C(=O)N3CC[C@@H](F)C3)CC2)c1 [Example 283, ((3R)-3-fluoropyrrolidin-1-yl)(1-(4-(4-methyl-1H-pyrazol-1-yl)pyridin-3-yl)piperidin-4-yl)methanone]
80 | O=C(C1CCN(c2cnccc2-n2cc(Cl)cn2)CC1)N1CC[C@H](F)C1 [Example 284, (1-(4-(4-chloro-1H-pyrazol-1-yl)pyridin-3-yl)piperidin-4-yl)((3S)-3-fluoropyrrolidin-1-yl)methanone]
82 | O=C(C1CCN(c2cnccc2-n2cc(Cl)cn2)CC1)N1CC[C@@H](F)C1 [Example 285, (1-(4-(4-chloro-1H-pyrazol-1-yl)pyridin-3-yl)piperidin-4-yl)((3R)-3-fluoropyrrolidin-1-yl)methanone]
83 | O=C(C1CCN(c2cncnc2-c2ccc(F)cc2)CC1)N1CC[C@H](F)C1 [Example 286, (1-(4-(4-fluorophenyl)pyrimidin-5-yl)piperidin-4-yl) ((3S)-3-fluoropyrrolidin-1-yl)methanone]
89 | O=C(C1CCN(c2cncnc2-c2ccc(F)cc2)CC1)N1CC[C@@H](F)C1 [Example 287, (1-(4-(4-fluorophenyl)pyrimidin-5-yl)piperidin-4-yl)((3R)-3-fluoropyrrolidin-1-yl)methanone]
84 | CO[C@H]1CCN(C(=O)C2CCN(c3cnccc3-n3cc(Cl)cn3)CC2)C1 [Example 299, (1-(4-(4-chloro-1H-pyrazol-1-yl)pyridin-3-yl)piperidin-4-yl)((3S)-3-methoxypyrrolidin-1-yl)methanone]
83 | CO[C@@H]1CCN(C(=O)C2CCN(c3cnccc3-n3cc(Cl)cn3)CC2)C1 [Example 300, (1-(4-(4-chloro-1H-pyrazol-1-yl)pyridin-3-yl)piperidin-4-yl)((3R)-3-methoxypyrrolidin-1-yl)methanone]
86 | CO[C@H]1CCN(C(=O)C2CCN(c3cnccc3-n3cc(C)cn3)CC2)C1 [Example 301, ((3S)-3-methoxypyrrolidin-1-yl)(1-(4-(4-methyl-1H-pyrazol-1-yl)pyridin-3-yl)piperidin-4-yl)methanone]
87 | CO[C@@H]1CCN(C(=O)C2CCN(c3cnccc3-n3cc(C)cn3)CC2)C1 [Example 302, ((3R)-3-methoxypyrrolidin-1-yl)(1-(4-(4-methyl-1H-pyrazol-1-yl)pyridin-3-yl)piperidin-4-yl)methanone]
85 | CO[C@H]1CCN(C(=O)C2CCN(c3cncnc3-c3ccc(F)cc3)CC2)C1 [Example 303, (1-(4-(4-fluorophenyl)pyrimidin-5-yl)piperidin-4-yl)((3S)-3-methoxypyrrolidin-1-yl)methanone]
86 | CO[C@@H]1CCN(C(=O)C2CCN(c3cncnc3-c3ccc(F)cc3)CC2)C1 [Example 304, (1-(4-(4-fluorophenyl)pyrimidin-5-yl)piperidin-4-yl)((3R)-3-methoxypyrrolidin-1-yl)methanone]

Further lines, the compound ahead of its results:

Structure (SMILES) | inhibition at 1 µM [%]
O=C(OCc1ccccc1)N1CCN(c2cncnc2-c2ccccc2)CC1 [Example 169, benzyl 4-(4-phenylpyrimidin-5-yl)piperazine-1-carboxylate] | 97
C[C@H]1CN(c2cncnc2-c2ccccc2)CCN1C(=O)CC1CC1 [Example 170, 2-cyclopropyl-1-((2S)-2-methyl-4-(4-phenylpyrimidin-5-yl)piperazin-1-yl)ethanone] | 86
O=C(NCc1ccccc1)N1CCN(c2cncnc2-c2ccccc2)CC1 [Example 175, N-benzyl-4-(4-phenylpyrimidin-5-yl)piperazine-1-carboxamide] | 95
CCNC(=O)N1CCN(c2cncnc2-c2ccccc2)CC1 [Example 176, N-ethyl-4-(4-phenylpyrimidin-5-yl)piperazine-1-carboxamide] | 82
CNC(=O)N1CCN(c2cncnc2-c2ccccc2)CC1 [Example 177, N-methyl-4-(4-phenylpyrimidin-5-yl)piperazine-1-carboxamide] | 92
O=C(CCn1ncc2ccccc21)N1CCN(c2cnccc2-c2ccccc2)CC1 [Example 183, 3-(1H-indazol-1-yl)-1-(4-(4-phenylpyridin-3-yl)piperazin-1-yl)propan-1-one] | 92
O=C(NCc1ccccn1)N1CCN(c2cncnc2-c2ccccc2)CC1 [Example 188, 4-(4-phenylpyrimidin-5-yl)-N-(pyridin-2-ylmethyl)piperazine-1-carboxamide] | 81
O=C(N1CCN(c2cnccc2-c2ccccc2)CC1)N1CCC1c1ccc(F)cc1 (centres unmarked) [Example 190, (2-(4-fluorophenyl)azetidin-1-yl) (4-(4-phenylpyridin-3-yl)piperazin-1-yl)methanone] | 87
N#C[C@H]1CCCN1C(=O)N1CCN(c2cncnc2-c2ccc(F)cc2)CC1 [Example 198, (2R)-1-((4-(4-(4-fluorophenyl)pyrimidin-5-yl)piperazin-1-yl)carbonyl)pyrrolidine-2-carbonitrile] | 90
CN1CCC2(CCN(c3cncnc3-c3ccc(F)cc3)CC2)C1=O [Example 222, 8-(4-(4-fluorophenyl)pyrimidin-5-yl)-2-methyl-2,8-diazaspiro[4.5]decan-1-one] | 92
CN(C(=O)C1CCN(c2cncnc2-c2ccc(F)cc2)CC1)C1CC1 [Example 277, N-cyclopropyl-1-(4-(4-fluorophenyl)pyrimidin-5-yl)-N-methylpiperidine-4-carboxamide] | 94
CN(C(=O)C1CCN(c2cncnc2-c2ccc(F)cc2)CC1)C1CCOCC1 [Example 288, 1-(4-(4-fluorophenyl)pyrimidin-5-yl)-N-methyl-N-(tetrahydro-2H-pyran-4-yl)piperidine-4-carboxamide] | 84
Cc1cnn(-c2ccncc2N2CCC(C(=O)N(C)C3CCOCC3)CC2)c1 [Example 296, N-methyl-1-(4-(4-methyl-1H-pyrazol-1-yl)pyridin-3-yl)-N-(tetrahydro-2H-pyran-4-yl)piperidine-4-carboxamide] | 86
Cc1cnn(-c2ccncc2N2CCN(C(=O)N(C)Cc3ccc(F)cc3)CC2)c1 [Example 297, N-(4-fluorobenzyl)-N-methyl-4-(4-(4-methyl-1H-pyrazol-1-yl)pyridin-3-yl)piperazine-1-carboxamide] | 84
CN(Cc1ccccc1)C(=O)N1CCN(c2cncnc2-c2ccccc2)CC1 [Example 298, N-benzyl-N-methyl-4-(4-phenylpyrimidin-5-yl)piperazine-1-carboxamide] | 79
